{"source": "patent US9107921B2", "about": "“Oral dosage forms for oxygen containing active agents and oxyl-containing polymers” (Spriaso LLC, priority 2012, dated 2015)", "origin": "cited, not measured here", "key": {"[1]": {"details": "for plasma half-life: in vivo"}}, "note": "Counter-ions that a name gives are not always drawn."}
{"smiles": "COc1ccc2c3c1O[C@H]1C(=O)CC[C@H]4[C@@H](C2)N(C)CC[C@]314", "note": "[Hydrocodone]", "values": [{"measurement": "plasma half-life", "setting": "[1]", "result": "3.8 to 6", "unit": "h"}]}
{"smiles": "COc1ccc2c3c1O[C@H]1[C@@H](O)C=C[C@H]4[C@@H](C2)N(C)CC[C@@]341", "note": "[codeine, 3-methylmorphine]", "values": [{"measurement": "plasma half-life", "setting": "[1]", "result": "2.5 to 3", "unit": "h"}]}
{"smiles": "CN(C)CCC(c1ccc(Cl)cc1)c1ccccn1", "note": "(centres unmarked) [chlorpheniramine, Chlorpheniramine]", "values": [{"measurement": "time to 50% in vitro drug release", "setting": "single-layer matrix tablet, HPMC polymer (Methocel K4M) to active ratio of about 1:1", "result": "about 3.5 hours"}, {"measurement": "time to peak plasma concentration", "setting": "[1]; following oral administration", "result": "2 to 3", "unit": "h"}]}
{"smiles": "CC(C)NCC(O)COc1cccc2ccccc12", "note": "(centres unmarked) [propranolol HCl]", "values": [{"measurement": "time to 50% drug release in vitro", "setting": "matrix tablet, HPMC (Methocel K4M) to active agent ratio 1:0.3 by weight", "result": "about 4 hours"}]}
